Data taken from PMC8750417, “Intracellular Amplifiers of Reactive Oxygen Species Affecting Mitochondria as Radiosensitizers” (Cancers, 2021).

System: A2780 cells
Assay: Intracellular carbonyl derivatives (DCCH), A2780
Type: cell-based, human
Conditions: 24 h
Protocol: and the cells were incubated in the dark chamber filled with CO2 (5%) at 37 °C for 20 min.
Next, the cells were detached from the culture dish using trypsin/EDTA (0.025%/0.01%, v/v, 50 µL). The cells were re-suspended in RPMI 1640 medium containing 5% FBS, 1% L-glutamine and 1% penicillin/streptomycin (100 µL). Finally, the fluorescence of live cells (λex = 488 nm, λem = 578 nm) in the suspensions was determined by using flow cytometry […]
Figure S60. Representative flow cytometric histograms used for setting up Figures 4B […]
Monitoring intracellular carbonyl derivatives
A2780 cells were seeded into 24 well culture plates at the same cell concentration and in the same medium as applied for the assay for monitoring tROS described above. The next day, stock solutions of prodrugs of different concentrations (5 μL of stock solutions in DMSO, final concentration of prodrugs 5 and 10 μM; control 7 2 and 5 µM) or carrier only (DMSO, 5 µL, final concentration 1 %, v/v) were added to the wells and incubated in the chamber filled with CO2 (5%). After 24 h, the cells were washed twice with DPBS buffer and the medium was replaced with HBSS (Hanks' Balanced Salt solution, 500 μL). […]
Finally, the fluorescence of live cells (λex = 488 nm, λem = 530 nm) in the suspensions was determined by using flow cytometry (Figure 4C). […]

## CC1(C)OB(c2ccc(COC(=O)N(Cc3cn(Cc4ccc(Cn5cc(Cc6ccccc6)nn5)cc4)nn3)[c-]3cccc3)cc2)OC1(C)C.[Fe+2].c1cc[cH-]c1 [2c]
  formation of intracellular carbonyl derivatives: did not induce formation of significant amounts of carbonyl derivatives
